{"source": "the NIST ThermoML archive (doi:10.1016/j.jct.2010.08.004)", "test": "mn = molality of the nth substance listed, in mol/kg", "settings": "101 kPa, Liquid, Vibrating tube method", "note": "± gives the expanded uncertainty stated by the source."}
{"smiles": "CC(C)[C@H](N)C(=O)O", "note": "[L-valine] + O", "values": [{"measurement": "mass density", "setting": "293.15 K, m1 = 0.04524", "result": "999.424 ± 0.034", "unit": "kg/m3"}, {"measurement": "mass density", "setting": "293.15 K, m1 = 0.09973", "result": "1000.87 ± 0.034", "unit": "kg/m3"}, {"measurement": "mass density", "setting": "293.15 K, m1 = 0.152", "result": "1002.24 ± 0.035", "unit": "kg/m3"}, {"measurement": "mass density", "setting": "293.15 K, m1 = 0.1964", "result": "1003.4 ± 0.035", "unit": "kg/m3"}, {"measurement": "mass density", "setting": "293.15 K, m1 = 0.2542", "result": "1004.9 ± 0.036", "unit": "kg/m3"}, {"measurement": "mass density", "setting": "293.15 K, m1 = 0.2955", "result": "1006.01 ± 0.037", "unit": "kg/m3"}, {"measurement": "mass density", "setting": "298.15 K, m1 = 0.04524", "result": "998.244 ± 0.034", "unit": "kg/m3"}, {"measurement": "mass density", "setting": "298.15 K, m1 = 0.09973", "result": "999.672 ± 0.034", "unit": "kg/m3"}, {"measurement": "mass density", "setting": "298.15 K, m1 = 0.152", "result": "1001.03 ± 0.034", "unit": "kg/m3"}, {"measurement": "mass density", "setting": "298.15 K, m1 = 0.1964", "result": "1002.18 ± 0.035", "unit": "kg/m3"}, {"measurement": "mass density", "setting": "298.15 K, m1 = 0.2542", "result": "1003.67 ± 0.036", "unit": "kg/m3"}, {"measurement": "mass density", "setting": "298.15 K, m1 = 0.2955", "result": "1004.72 ± 0.037", "unit": "kg/m3"}, {"measurement": "mass density", "setting": "303.15 K, m1 = 0.04524", "result": "996.827 ± 0.035", "unit": "kg/m3"}, {"measurement": "mass density", "setting": "303.15 K, m1 = 0.09973", "result": "998.242 ± 0.035", "unit": "kg/m3"}, {"measurement": "mass density", "setting": "303.15 K, m1 = 0.152", "result": "999.59 ± 0.034", "unit": "kg/m3"}, {"measurement": "mass density", "setting": "303.15 K, m1 = 0.1964", "result": "1000.73 ± 0.035", "unit": "kg/m3"}, {"measurement": "mass density", "setting": "303.15 K, m1 = 0.2542", "result": "1002.2 ± 0.036", "unit": "kg/m3"}, {"measurement": "mass density", "setting": "303.15 K, m1 = 0.2955", "result": "1003.25 ± 0.036", "unit": "kg/m3"}, {"measurement": "mass density", "setting": "308.15 K, m1 = 0.04524", "result": "995.195 ± 0.036", "unit": "kg/m3"}, {"measurement": "mass density", "setting": "308.15 K, m1 = 0.09973", "result": "996.6 ± 0.035", "unit": "kg/m3"}, {"measurement": "mass density", "setting": "308.15 K, m1 = 0.152", "result": "997.939 ± 0.035", "unit": "kg/m3"}, {"measurement": "mass density", "setting": "308.15 K, m1 = 0.1964", "result": "999.067 ± 0.035", "unit": "kg/m3"}, {"measurement": "mass density", "setting": "308.15 K, m1 = 0.2542", "result": "1000.53 ± 0.035", "unit": "kg/m3"}, {"measurement": "mass density", "setting": "308.15 K, m1 = 0.2955", "result": "1001.56 ± 0.036", "unit": "kg/m3"}]}
{"smiles": "CC(C)C[C@H](N)C(=O)O", "note": "[L-leucine] + O", "values": [{"measurement": "mass density", "setting": "293.15 K, m1 = 0.03401", "result": "999.039 ± 0.034", "unit": "kg/m3"}, {"measurement": "mass density", "setting": "293.15 K, m1 = 0.03488", "result": "999.061 ± 0.034", "unit": "kg/m3"}, {"measurement": "mass density", "setting": "293.15 K, m1 = 0.05007", "result": "999.427 ± 0.034", "unit": "kg/m3"}, {"measurement": "mass density", "setting": "293.15 K, m1 = 0.08154", "result": "1000.18 ± 0.034", "unit": "kg/m3"}, {"measurement": "mass density", "setting": "293.15 K, m1 = 0.119", "result": "1001.08 ± 0.034", "unit": "kg/m3"}, {"measurement": "mass density", "setting": "293.15 K, m1 = 0.1427", "result": "1001.64 ± 0.035", "unit": "kg/m3"}, {"measurement": "mass density", "setting": "298.15 K, m1 = 0.03401", "result": "997.855 ± 0.035", "unit": "kg/m3"}, {"measurement": "mass density", "setting": "298.15 K, m1 = 0.03488", "result": "997.877 ± 0.034", "unit": "kg/m3"}, {"measurement": "mass density", "setting": "298.15 K, m1 = 0.05007", "result": "998.236 ± 0.034", "unit": "kg/m3"}, {"measurement": "mass density", "setting": "298.15 K, m1 = 0.08154", "result": "998.978 ± 0.034", "unit": "kg/m3"}, {"measurement": "mass density", "setting": "298.15 K, m1 = 0.119", "result": "999.854 ± 0.034", "unit": "kg/m3"}, {"measurement": "mass density", "setting": "298.15 K, m1 = 0.1427", "result": "1000.41 ± 0.034", "unit": "kg/m3"}, {"measurement": "mass density", "setting": "303.15 K, m1 = 0.03401", "result": "996.441 ± 0.035", "unit": "kg/m3"}, {"measurement": "mass density", "setting": "303.15 K, m1 = 0.03488", "result": "996.462 ± 0.035", "unit": "kg/m3"}, {"measurement": "mass density", "setting": "303.15 K, m1 = 0.05007", "result": "996.817 ± 0.035", "unit": "kg/m3"}, {"measurement": "mass density", "setting": "303.15 K, m1 = 0.08154", "result": "997.55 ± 0.035", "unit": "kg/m3"}, {"measurement": "mass density", "setting": "303.15 K, m1 = 0.119", "result": "998.417 ± 0.035", "unit": "kg/m3"}, {"measurement": "mass density", "setting": "303.15 K, m1 = 0.1427", "result": "998.966 ± 0.035", "unit": "kg/m3"}, {"measurement": "mass density", "setting": "308.15 K, m1 = 0.03401", "result": "994.81 ± 0.036", "unit": "kg/m3"}, {"measurement": "mass density", "setting": "308.15 K, m1 = 0.03488", "result": "994.83 ± 0.036", "unit": "kg/m3"}, {"measurement": "mass density", "setting": "308.15 K, m1 = 0.05007", "result": "995.182 ± 0.036", "unit": "kg/m3"}, {"measurement": "mass density", "setting": "308.15 K, m1 = 0.08154", "result": "995.908 ± 0.036", "unit": "kg/m3"}, {"measurement": "mass density", "setting": "308.15 K, m1 = 0.119", "result": "996.767 ± 0.035", "unit": "kg/m3"}, {"measurement": "mass density", "setting": "308.15 K, m1 = 0.1427", "result": "997.31 ± 0.035", "unit": "kg/m3"}]}
{"smiles": "NCC(=O)O", "note": "[2-aminoacetic acid] + O", "values": [{"measurement": "mass density", "setting": "293.15 K, m1 = 0.05482", "result": "999.976 ± 0.034", "unit": "kg/m3"}, {"measurement": "mass density", "setting": "293.15 K, m1 = 0.1106", "result": "1001.75 ± 0.035", "unit": "kg/m3"}, {"measurement": "mass density", "setting": "293.15 K, m1 = 0.1792", "result": "1003.91 ± 0.036", "unit": "kg/m3"}, {"measurement": "mass density", "setting": "293.15 K, m1 = 0.2044", "result": "1004.69 ± 0.036", "unit": "kg/m3"}, {"measurement": "mass density", "setting": "293.15 K, m1 = 0.2754", "result": "1006.9 ± 0.038", "unit": "kg/m3"}, {"measurement": "mass density", "setting": "293.15 K, m1 = 0.2966", "result": "1007.58 ± 0.038", "unit": "kg/m3"}, {"measurement": "mass density", "setting": "298.15 K, m1 = 0.05482", "result": "998.789 ± 0.034", "unit": "kg/m3"}, {"measurement": "mass density", "setting": "298.15 K, m1 = 0.1106", "result": "1000.54 ± 0.034", "unit": "kg/m3"}, {"measurement": "mass density", "setting": "298.15 K, m1 = 0.1792", "result": "1002.68 ± 0.036", "unit": "kg/m3"}, {"measurement": "mass density", "setting": "298.15 K, m1 = 0.2044", "result": "1003.46 ± 0.036", "unit": "kg/m3"}, {"measurement": "mass density", "setting": "298.15 K, m1 = 0.2754", "result": "1005.64 ± 0.037", "unit": "kg/m3"}, {"measurement": "mass density", "setting": "298.15 K, m1 = 0.2966", "result": "1006.28 ± 0.038", "unit": "kg/m3"}, {"measurement": "mass density", "setting": "303.15 K, m1 = 0.05482", "result": "997.364 ± 0.035", "unit": "kg/m3"}, {"measurement": "mass density", "setting": "303.15 K, m1 = 0.1106", "result": "999.102 ± 0.035", "unit": "kg/m3"}, {"measurement": "mass density", "setting": "303.15 K, m1 = 0.1792", "result": "1001.22 ± 0.035", "unit": "kg/m3"}, {"measurement": "mass density", "setting": "303.15 K, m1 = 0.2044", "result": "1002 ± 0.036", "unit": "kg/m3"}, {"measurement": "mass density", "setting": "303.15 K, m1 = 0.2754", "result": "1004.17 ± 0.037", "unit": "kg/m3"}, {"measurement": "mass density", "setting": "303.15 K, m1 = 0.2966", "result": "1004.81 ± 0.037", "unit": "kg/m3"}, {"measurement": "mass density", "setting": "308.15 K, m1 = 0.1106", "result": "997.455 ± 0.035", "unit": "kg/m3"}, {"measurement": "mass density", "setting": "308.15 K, m1 = 0.1792", "result": "999.562 ± 0.035", "unit": "kg/m3"}, {"measurement": "mass density", "setting": "308.15 K, m1 = 0.2044", "result": "1000.33 ± 0.035", "unit": "kg/m3"}, {"measurement": "mass density", "setting": "308.15 K, m1 = 0.2754", "result": "1002.5 ± 0.036", "unit": "kg/m3"}, {"measurement": "mass density", "setting": "308.15 K, m1 = 0.2966", "result": "1003.13 ± 0.037", "unit": "kg/m3"}]}
